# Results reported in US20250161216A1, “CATIONIC LIPID ANALOGUES, COMPOSITIONS AND USES THEREOF” (GUANGZHOU LIDE BIOMEDICINE TECHNOLOGY CO., LTD., priority 2022, published 2025).
# System: C57BL/6 mice
# Experiment: In vivo expression level of Luciferase-mRNA delivered by intravenous injection (bioluminescence imaging)
# Details: mRNA-loaded nanoparticles, intravenous (tail vein), 5 μg Luciferase-mRNA, 6 hours
# Method: Luciferase-mRNA was used as an mRNA model; and the cationic lipid analogues of Examples 1-5 were used to prepare drug-loaded nanoparticles according to the method of Example 6.
# 200 μL of nanoparticles containing 5 μg Luciferase-mRNA or the drug-loaded nanoparticles prepared above were injected into tail veins of 6-8 week-old C57BL/6 mice, and 200 μL of 1×PBS solution containing 3 mg D-Luciferin potassium salt was intraperitoneally injected into the mice 6 hours later. After waiting for 10 minutes, an in vivo expression level of the mRNA was evaluated by bioluminescence imaging.
smiles,measurement,setting,value
CCCCC/C=C\C/C=C\CCCCCCCC(=O)N(CCN1CCCCCC1)C(C(=O)NCCN(C)CCNC(=O)C(C(C)C)N(CCN1CCCCCC1)C(=O)CCCCCCC/C=C\C/C=C\CCCCC)C(C)C (centres unmarked) [A1I4R13C18-2],Fluorescence intensity of spleen,compounds of Example 2,2.85E+04
CCCCCCCCCCCCC#CC#CCCCCCCCCC(=O)N(CCCN(C)C)C(C(=O)NCCCCCCCCCCCCCCCCCC)C(CC)CCCC (centres unmarked) [A4I18R2C23],Bioluminescence intensity,compounds of Example 1,1.40E+07
CCCCCCCCCCCCCCCCCC(=O)N(CCC)C(C(=O)NCCN(C)CCNC(=O)C(C1CC1)N(CCC)C(=O)CCCCCCCCCCCCCCCCC)C1CC1 (centres unmarked) [A21I4R21C18],Fluorescence intensity of spleen,compounds of Example 2,5.31E+03
CCCCCCCCCCCCCCCCCC(=O)N(CCCN(C)C)C(C(=O)NCCN(C)CCNC(=O)C(C(C)C)N(CCCN(C)C)C(=O)CCCCCCCCCCCCCCCCC)C(C)C (centres unmarked) [A1I4R2C18],Fluorescence intensity of spleen,compounds of Example 2,1.79E+04
CCCCCCCC/C=C\CCCCCCCC(=O)N(CCC)C(C(=O)NCCN(C)CCNC(=O)C(C1CC1)N(CCC)C(=O)CCCCCCC/C=C\CCCCCCCC)C1CC1 (centres unmarked) [A21I4R21C18-1],Fluorescence intensity of spleen,compounds of Example 2,8.50E+03
CCCCCCCC/C=C\CCCCCCCC(=O)N(CCC)C(C(=O)NCCN(C)CCNC(=O)C(C(CC)CCCC)N(CCC)C(=O)CCCCCCC/C=C\CCCCCCCC)C(CC)CCCC (centres unmarked) [A4I4R21C18-1],Fluorescence intensity of spleen,compounds of Example 2,3.02E+04
CCCCCCCC/C=C\CCCCCCCC(=O)N(CCCN(C)C)C(C(=O)NCCN(C)CCNC(=O)C(C(C)C)N(CCCN(C)C)C(=O)CCCCCCC/C=C\CCCCCCCC)C(C)C (centres unmarked) [A1I4R2C18-1],Bioluminescence intensity,compounds of Example 2,8.80E+02
CCCCCCCCCCCCCC(=O)N(CCO)C(C(=O)NCCN(C)CCNC(=O)C(C(C)C)N(CCO)C(=O)CCCCCCCCCCCCC)C(C)C (centres unmarked) [A1I4R22C14],Fluorescence intensity of spleen,compounds of Example 2,2.30E+03
CCCCCCCC/C=C\CCCCCCCC(=O)N(CCCN(CC)CC)C(C(=O)NCCCCCCCCCCCCCCCCCC)C1CCCCC1 (centres unmarked) [A23I18R3C18-1],Fluorescence intensity of liver,compounds of Example 1,1.26E+06
CCCCCCCCCC(=O)N(CCO)C(C(=O)NCCN(CCNC(=O)C(C(C)C)N(CCO)C(=O)CCCCCCCCC)CCNC(=O)C(C(C)C)N(CCO)C(=O)CCCCCCCCC)C(C)C (centres unmarked) [A1I5R22C10],Fluorescence intensity of spleen,compounds of Example 3,3.00E+05
CCCCCCSSCCC(=O)N(CCO)C(C(=O)NCCN(CCNC(=O)C(C(C)C)N(CCO)C(=O)CCSSCCCCCC)CCNC(=O)C(C(C)C)N(CCO)C(=O)CCSSCCCCCC)C(C)C (centres unmarked) [A1I5R22S11],Fluorescence intensity of spleen,compounds of Example 3,1.30E+05
CCCCCCCCCCCCC#CC#CCCCCCCCCC(=O)N(CCCN(CC)CC)C(C(=O)NCCCCCCCCCCCCCCCCCC)C(C)C (centres unmarked) [A1I18R3C23],Fluorescence intensity of liver,compounds of Example 1,7.67E+04
CCCCC/C=C\C/C=C\CCCCCCCC(=O)N(CCCN(C)C)C(C(=O)NCCCCCCCCCCCCCC)C(CC)CCCC (centres unmarked) [A4I10R2C18-2],Fluorescence intensity of liver,compounds of Example 1,1.15E+06
CCCCC/C=C\C/C=C\CCCCCCCC(=O)N(CCCN1CCN(C)CC1)C(CCCCC)C(=O)NCCCCCCCCCCCCCCCCCC (centres unmarked) [A4I18R9C18-2],Fluorescence intensity of liver,compounds of Example 1,2.55E+03
CCCCCCCCCCCCCCCCCC(=O)N(CCN1CCCCCC1)C(C(=O)NCCN(C)CCNC(=O)C(C1CCCCC1)N(CCN1CCCCCC1)C(=O)CCCCCCCCCCCCCCCCC)C1CCCCC1 (centres unmarked) [A23I4R13C18],Bioluminescence intensity,compounds of Example 2,7.89E+02
CC/C=C\C/C=C\C/C=C\CCCCCCCC(=O)N(CCCN(CC)CC)C(C(=O)NCCCCCCCCCCCCCCCCCC)C1CCCCC1 (centres unmarked) [A23I18R3C18-3],Fluorescence intensity of liver,compounds of Example 1,1.13E+06
CCCCCCCCCCCCCCCCCC(=O)N(CCC)C(C(=O)NCCN(C)CCNC(=O)C(C1CCCCC1)N(CCC)C(=O)CCCCCCCCCCCCCCCCC)C1CCCCC1 (centres unmarked) [A23I4R21C18],Fluorescence intensity of spleen,compounds of Example 2,5.43E+03
CCCCC/C=C\C/C=C\CCCCCCCC(=O)N(CCO)C(C(=O)NCCN(C)CCNC(=O)C(C1CC1)N(CCO)C(=O)CCCCCCC/C=C\C/C=C\CCCCC)C1CC1 (centres unmarked) [A21I4R22C18-2],Fluorescence intensity of spleen,compounds of Example 2,1.26E+03
CCCCC/C=C\C/C=C\CCCCCCCC(=O)N(CCCN(C)C)C(C(=O)NCCCCCCCCCCCCCCCCCC)C(C)CCC=C(C)C (centres unmarked) [A5I18R2C18-2],Fluorescence intensity of liver,compounds of Example 1,8.72E+05
CCCCCCCCCCCCCCCCCC(=O)N(CCCN(C)C)C(C(=O)NCCN(C)CCNC(=O)C(C(CC)CCCC)N(CCCN(C)C)C(=O)CCCCCCCCCCCCCCCCC)C(CC)CCCC (centres unmarked) [A4I4R2C18],Fluorescence intensity of spleen,compounds of Example 2,2.24E+03
CCCCCCCCCCCCCCCCCC(=O)N(CCCN(C)C)C(C(=O)NCCN(C)CCNC(=O)C(C1CCCCC1)N(CCCN(C)C)C(=O)CCCCCCCCCCCCCCCCC)C1CCCCC1 (centres unmarked) [A23I4R2C18],Bioluminescence intensity,compounds of Example 2,5.71E+02
CCCCCCCCCCCCCCCCCCNC(=O)C(C(CC)CCCC)N(CCN(C)C)C(=O)CCCCCCCCCCCCCCCCC (centres unmarked) [A4I18R1C18],Fluorescence intensity of liver,compounds of Example 1,3.65E+05
CCCCC/C=C\C/C=C\CCCCCCCC(=O)N(CCOC)C(C(=O)NCCN(C)CCNC(=O)C(C1CC1)N(CCOC)C(=O)CCCCCCC/C=C\C/C=C\CCCCC)C1CC1 (centres unmarked) [A21I4R23C18-2],Fluorescence intensity of spleen,compounds of Example 2,6.97E+04
